SMILES strings stand for the structures.

Experimental findings from ChEMBL document CHEMBL2218064, “Structure-activity relationship data for chemical series of antagonists of the P2X7 receptor (Supplementary Bioactivity Data for publication CHEMBL1157114)” are described below.

The target of the test is T1, P2X purinoceptor 7 (Homo sapiens, UniProt Q99572).
T1 sequence (Q99572 whole entry): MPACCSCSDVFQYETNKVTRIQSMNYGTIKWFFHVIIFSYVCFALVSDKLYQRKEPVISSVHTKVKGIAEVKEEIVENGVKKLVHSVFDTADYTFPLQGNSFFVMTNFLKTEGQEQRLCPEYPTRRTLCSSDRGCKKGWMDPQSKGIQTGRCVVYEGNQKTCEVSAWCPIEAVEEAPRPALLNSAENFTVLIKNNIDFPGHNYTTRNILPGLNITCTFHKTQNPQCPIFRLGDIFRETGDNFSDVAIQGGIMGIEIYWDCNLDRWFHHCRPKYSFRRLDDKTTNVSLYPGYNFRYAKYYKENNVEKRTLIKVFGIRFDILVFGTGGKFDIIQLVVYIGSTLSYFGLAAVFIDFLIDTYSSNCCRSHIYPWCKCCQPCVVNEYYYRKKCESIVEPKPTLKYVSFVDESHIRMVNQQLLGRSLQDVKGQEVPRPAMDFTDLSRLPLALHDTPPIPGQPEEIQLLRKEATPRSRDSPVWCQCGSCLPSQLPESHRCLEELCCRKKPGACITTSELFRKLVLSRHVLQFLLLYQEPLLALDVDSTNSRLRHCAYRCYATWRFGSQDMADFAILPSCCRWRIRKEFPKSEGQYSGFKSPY
Nature of the test: SUPPLEMENTARY: Inhibition of human P2X7 receptor assessed as inhibition of ethidium bromide accumulation. Same assay as CHEMBL1103860.
On to `CCN1C(=O)CC[C@H]1C(=O)NCc1ccc(C)cc1C`, for which the IC50 (as a rule, the concentration that inhibits the measured activity by half) was 158 nM.
The result for `O=C(c1ccc(Cl)cc1Cl)N1CCn2c(nnc2-c2ccc(F)cc2F)C1` reads 100 nM; that for `Cc1nn(-c2ccccc2)c(C)c1CC(=O)NCc1cccc(F)c1F`, 316 nM.
For the molecule `CN1C(=O)N(c2cncnc2)C[C@H]1C(=O)NCc1cccc(C(F)(F)F)c1Cl`, the IC50 was 12.6 nM.
To `O=C(NCc1cccc(C(F)(F)F)c1Cl)C1CCC(=O)N1C1CC1` (centres undefined) belongs 1.26 nM; to `O=C(c1ccc(Cl)cc1Cl)N1CCn2c(nnc2-c2ccc(F)cc2)C1`, 15.8 nM.
For the molecule `CC(C)N1C(=O)CCC1(C)C(=O)NCc1ccc(Cl)cc1Cl` (centres undefined), the IC50 is 200 nM.
The result for `CC(C)N1[C@H](C(=O)NCc2ccc(F)cc2C(F)(F)F)CCS1(=O)=O` reads 631 nM; that for `O=C(c1ccc(Cl)cc1Cl)N1CCN(c2ccccc2Cl)C(=O)C1`, 25.1 nM; that for `Cc1ccc(-c2ccc(C)c(N3CCN(C(=O)c4cccc(C(F)(F)F)c4Cl)CC3=O)c2)cn1`, 39.8 nM.
To `CN1C(=O)CC[C@H]1C(=O)NCc1cccc2ccccc12` belongs 1.58 nM.
The result for `O=C(c1cccc(C(F)(F)F)c1Cl)N1CCn2c(nnc2-c2ccc[nH]2)C1` reads 1.58 nM.
Take `O=C(NCc1ccc(F)cc1Cl)C1COCC(=O)N1Cc1ccccc1` (centres undefined): the IC50 was 501 nM.
The result for `O=C(c1ccc(F)cc1Cl)N1CCn2c(-c3cnccn3)cnc2C1` reads 3.98 nM; that for `CC(C)(C)CN1C(=O)CC[C@@H]1C(=O)NCc1cccc(C(F)(F)F)c1Cl`, 158 nM.
With `CN1C[C@@H](C(=O)NCc2ccc(F)c(Cl)c2Cl)N(C)C1=O`, the IC50 was 2.51 nM.
To `O=C1C(=O)N(c2cc(F)ccc2N2CCOCC2)CCN1Cc1ccc(F)cc1Cl` belongs 15.8 nM; to `Cc1ncccc1N1C[C@@H](C(=O)NCc2cccc(Cl)c2Cl)N(C)C1=O`, 39.8 nM; to `CN1C(=O)N(c2ccccn2)C[C@H]1C(=O)NCc1ccc(F)cc1Cl`, 79.4 nM.
To `CN1C(=O)N(c2cc(C(F)(F)F)ncn2)C[C@H]1C(=O)NCc1ccc(F)c(F)c1Cl` belongs 50.1 nM; to `O=C(c1ccc(F)cc1Cl)N1CCn2c(nnc2-c2cccnn2)C1`, 501 nM; to `Cc1nn(-c2cccc(F)c2)c(C)c1CC(=O)NCc1ccc(F)cc1Cl`, 200 nM.
To `CN1C(=O)CCC1(C)C(=O)NCc1ccc(Cl)cc1Cl` (centres undefined) belongs 200 nM; to `Cc1nn(-c2ccccc2)c(C)c1CC(=O)NCc1cc(Cl)ccc1Cl`, 631 nM; to `CC(C)CN1[C@H](C(=O)NCc2ccc(F)cc2Cl)CCS1(=O)=O`, 501 nM.
In the case of `Cc1nn(-c2ccccn2)c(C)c1CC(=O)NCc1ccc(F)cc1Cl`, the IC50 was 100 nM.
The result for `Cc1cc(Cl)ccc1CNC(=O)[C@@H]1CCC(=O)N1C` reads 25.1 nM; that for `O=C(c1ccc(F)c(C(F)(F)F)c1)N1CCn2c(nnc2-c2cnccn2)C1`, 12.6 nM.
The result for `CC(C)c1ccccc1N1CCN(C(=O)c2cccc(Cl)c2Cl)CC1=O` reads 10 nM; that for `O=C(c1cccc(C(F)(F)F)c1Cl)N1CCn2c(nnc2N2CCCC2)C1`, 15.8 nM; that for `O=C1C(=O)N(c2ccccc2-n2cccc2)CCN1Cc1ccc(F)cc1Cl`, 100 nM.
The result for `Cc1ccc(N2CCOCC2)c(N2CCN(Cc3ccc(F)cc3Cl)C(=O)C2=O)c1` reads 50.1 nM; that for `Cc1nn(CCO)c(C)c1CC(=O)NCc1cccc(Cl)c1C`, 63.1 nM; that for `O=C(c1cccc(Cl)c1Cl)N1CCn2c(nnc2-c2ccc(F)cc2F)C1`, 12.6 nM.
With `Cc1cc(F)cc(C)c1N1CCN(Cc2cccc(Cl)c2Cl)C(=O)C1=O`, the IC50 is 50.1 nM.
To `CC(C)CN1CC(C(=O)NCc2ccc(Cl)cc2Cl)CC1=O` (centres undefined) belongs 79.4 nM; to `CCN1C(=O)CC[C@H]1C(=O)NCc1cccc(C(F)(F)F)c1C#N`, 3.16 nM; to `CN1C(=O)N(c2ccnn2C)C[C@H]1C(=O)NCc1ccc(F)c(F)c1Cl`, 20 nM.
The result for `Cc1ncccc1N1C[C@@H](C(=O)NCc2ccc(F)c(F)c2Cl)N(C)C1=O` reads 31.6 nM; that for `CN1C(=O)NC[C@H]1C(=O)NCc1ccc(Cl)c(C(F)(F)F)c1`, 158 nM; that for `Cc1ccccc1N1CCN(Cc2c(C)cc(Cl)cc2Cl)C(=O)C1=O`, 5.01 nM.
To `O=C1CN(C(=O)c2cccc(C(F)(F)F)c2Cl)CCN1CC1CCC1` belongs 200 nM; to `CN1C(=O)N(CCN2CCOCC2)C[C@H]1C(=O)NCc1ccc(F)c(F)c1Cl`, 63.1 nM.
For `CN1C[C@@H](C(=O)NCc2ccc(F)cc2Cl)N(C)C1=O`, the IC50 was 10 nM.
To `O=C(c1ccccc1Cl)N1CCn2c(nnc2-c2ccc(F)cc2)C1` belongs 79.4 nM.
To `O=C(c1ccc(Cl)cc1Cl)N1CCn2c(Cl)cnc2C1` belongs 200 nM; to `CN1C(=O)N(CCF)C[C@H]1C(=O)NCc1ccc(Cl)cc1Cl`, 3.16 nM.
The result for `CCN1C(=O)C(C)(C)C[C@H]1C(=O)NCc1ccc(F)c(F)c1Cl` reads 39.8 nM; that for `O=C(NCc1ccc(Cl)cc1Cl)[C@H]1CCC(=O)N1Cc1cccnc1`, 63.1 nM.
Consider `Cn1ncc(F)c1CC(=O)NCc1ccc(F)c(F)c1Cl`, for which the IC50 is 100 nM.
To `CN1C(=O)CC[C@@H]1C(=O)NCc1ccc(Cl)cc1Cl` belongs 50.1 nM.
To `CCN1C(=O)CC[C@H]1C(=O)NCc1cccc(C(F)(F)F)c1F` belongs 25.1 nM; to `Cc1ccccc1N1CCN(Cc2ccccc2Cl)C(=O)C1=O`, 126 nM.
To `Cc1c(OCCN2CCOCC2)cccc1N1CCN(Cc2ccc(F)cc2Cl)C(=O)C1=O` belongs 100 nM.
Regarding `Cc1nn(-c2ncccn2)c(C)c1CC(=O)NCc1ccc(F)c(F)c1F`, the IC50 was 79.4 nM.
The result for `CN1C(=O)N(CCN2CCOCC2)CC1C(=O)NCc1ccc(F)cc1Cl` (centres undefined) reads 251 nM.
To `COc1ccnc(N2C[C@@H](C(=O)NCc3ccc(Cl)cc3Cl)N(C)C2=O)n1` belongs 20 nM.
To `Cc1c(Br)cccc1N1CCN(C(=O)c2cccc(C(F)(F)F)c2Cl)CC1=O` belongs 6.31 nM; to `Cn1nccc1CC(=O)NCc1ccc(Cl)cc1Cl`, 126 nM.
As for `COc1ccc(N2CCOCC2)cc1N1CCN(Cc2ccc(F)cc2Cl)C(=O)C1=O`, the IC50 is 50.1 nM.
In the case of `O=C1C(=O)N(c2ccccc2F)CCN1Cc1ccc(F)cc1Cl`, the concentration for half-maximal inhibition (IC50) is 126 nM.
The result for `O=C(c1cccc(C(F)(F)F)c1Cl)N1CCn2c(nc(C(F)(F)F)c2Br)C1` reads 5.01 nM; that for `Cn1ncc(I)c1CC(=O)NCc1ccc(Cl)cc1Cl`, 39.8 nM.
For the molecule `CCN1C(=O)CC[C@@H]1C(=O)NCc1cccc(C(F)(F)F)c1F`, the 50% inhibitory concentration (IC50) is 158 nM.
For `O=C(c1ccc(F)cc1Cl)N1CCn2c(nnc2-c2ccc(F)c(F)c2)C1`, the half-maximal inhibitory concentration (IC50) was 50.1 nM.
To `CCN1[C@H](C(=O)NCc2cccc(C(F)(F)F)c2Cl)CCS1(=O)=O` belongs 10 nM.
Consider `Cc1c(Cl)cccc1CNC(=O)[C@@H]1CCC(=O)N1C`, for which the IC50 is 15.8 nM.
To `Cc1nn(-c2ccccc2F)c(C)c1CC(=O)NCc1ccc(F)cc1Cl` belongs 158 nM; to `Cc1ccccc1N1CCN(Cc2ccc(F)cc2Cl)C(=O)C1=O`, 50.1 nM; to `O=C(c1cccc(C(F)(F)F)c1Cl)N1CCn2c(nnc2-c2ccccc2O)C1`, 2.51 nM.
To `CCN1C(=O)CC[C@@H]1C(=O)NCc1c(Cl)cccc1Cl` belongs 631 nM.
The result for `CC(C)N1[C@H](C(=O)NCc2ccc(F)cc2Cl)CCS1(=O)=O` reads 200 nM; that for `CN1C[C@@H](C(=O)NCc2c(F)cc(Cl)cc2Cl)N(C)C1=O`, 5.01 nM; that for `Cc1c(Cl)cccc1CNC(=O)[C@@H]1CCS(=O)(=O)N1C`, 100 nM.
With `CN1C(=O)CC[C@H]1C(=O)NCc1cccc(Cl)c1Cl`, the IC50 was 15.8 nM.
To `Cc1c(CC(=O)NCc2ccc(F)cc2Cl)cnn1-c1ccc(F)cc1` belongs 251 nM; to `O=C(c1cccc(C(F)(F)F)c1F)N1CCn2c(Br)nnc2C1`, 79.4 nM; to `CN1[C@H](C(=O)NCc2ccc(F)cc2Cl)CCS1(=O)=O`, 126 nM.
The result for `CN1C(=O)N(c2nccn2C)C[C@H]1C(=O)NCc1ccc(F)c(F)c1Cl` reads 39.8 nM; that for `O=C(NCc1ccc(Cl)cc1Cl)C1CC(=O)N(C2CC2)C1` (centres undefined), 126 nM; that for `Cc1cccc(Cl)c1CNC(=O)Cc1c(C)nn(CC(C)(C)O)c1C`, 200 nM.
The result for `O=C(c1ccc(F)c(F)c1Cl)N1CCN(c2ccc(F)cc2Cl)C(=O)C1` reads 39.8 nM.
Regarding `CN1C(=O)CC[C@H]1C(=O)NCc1ccc(F)cc1C(F)(F)F`, the IC50 was 100 nM.
In the case of `CCN1C(=O)CC[C@@H]1C(=O)NCc1ccc(F)cc1C(F)(F)F`, the IC50 is 200 nM.
To `O=C(c1cccc(C(F)(F)F)c1Cl)N1CCn2c(nnc2-c2cscn2)C1` belongs 1.58 nM.
To `CN1C(=O)N(Cc2ccccn2)CC1C(=O)NCc1ccc(F)c(F)c1Cl` (centres undefined) belongs 79.4 nM; to `CCN1[C@H](C(=O)NCc2ccc(F)c(F)c2Cl)CCS1(=O)=O`, 79.4 nM; to `O=C(c1ccc(Cl)cc1Cl)N1CCN(c2ccc(F)cc2F)C(=O)C1`, 794 nM.
Take `O=C(c1cccc(C(F)(F)F)c1Cl)N1CCn2c(nc(Cl)c2Br)C1`: the IC50 is 2.51 nM.
